{
  "source": "patent US20040043920A1",
  "about": "“Compound for chelating a metal, radiopharmaceutical, manufacturing process therefor, and diagnostic kit” (priority 2000, published 2004)",
  "key": {"[1]": {"assay": "Brain distribution in the rat: crossing of the blood-brain barrier and striatum/cerebellum ratio", "type": "in vivo", "description": "The model chosen is the rat. Depending on the compounds, we performed one or two sacrifice times (30 minutes or 1 hour).\nAt the times chosen, the brains were removed and the areas of interest were isolated and counted.\nthe crossing of the blood-brain barrier by the compound under consideration,\na striatum/cerebellum ratio."}, "[2]": {"assay": "HPLC analysis of rats' urine for unchanged complex", "type": "in vivo, rat", "details": "rats' urine collected 1 hour 30 minutes after injection", "description": "(§1) The molecule was radiolabelled as described in Example (29). The radiolabelled compound is then isolated by HPLC, evaporated and taken up in 0.9% saline medium. The bioavailability in rats gives the following results (see Table 1):\nThe rats' urine was collected 1 hour 30 minutes after injection and analysed by HPLC. The result of this analysis is 87% of unchanged complex."}, "[3]": {"assay": "Bioavailability (biodistribution) of radiolabelled Lys-Lys bis-dithiocarbamate in rats", "type": "in vivo", "details": "rat", "description": "as §1\ntime 30 minutes and 60 minutes: 3 animals per point,\ntime 3 hours: 2 animals per point,\ntime 24 hours: 1 animal per point.\nThe results are expressed as a percentage of dose injected per organ."}},
  "data": [
    {"smiles": "Cc1ccc(C2CC3CCC(C2COC(=O)C2CCCCNC(=S)[S][Tc](#[N])[S]C(=S)NCCCCC(=O)N2)N3C)cc1", "note": "(centres unmarked) [Compound 52]", "values": [
      {"measurement": "Biodistribution: cerebellum", "setting": "[1]; 30′", "result": "30′: cerebellum: 0.114%"},
      {"measurement": "Biodistribution: crossing of blood-brain barrier", "setting": "[1]; 30′", "result": "barrier: 0.358%"},
      {"measurement": "Biodistribution: striatum", "setting": "[1]; 30′", "result": "striatum: 0.133%"},
      {"measurement": "S/C (striatum/cerebellum ratio)", "setting": "[1]; 30′", "result": 1.17},
      {"measurement": "Biodistribution: cerebellum", "setting": "[1]; 1 h", "result": "1 h: cerebellum: 0.065%"},
      {"measurement": "Biodistribution: crossing of blood-brain barrier", "setting": "[1]; 1 h", "result": "barrier: 0.182%"},
      {"measurement": "Biodistribution: striatum", "setting": "[1]; 1 h", "result": "striatum: 0.064%"},
      {"measurement": "S/C (striatum/cerebellum ratio)", "setting": "[1]; 1 h", "result": 0.98}
    ]},
    {"smiles": "NC(CCCCNC(=S)S)C(=O)NC(CCCCNC(=S)S)C(=O)O", "note": "(centres unmarked) [Lys-Lys Bis-Dithiocarbamate]", "values": [
      {"measurement": "unchanged complex in urine", "setting": "[2]", "result": 87, "unit": "%"},
      {"measurement": "percentage of dose injected per organ, adrenals", "setting": "[3]; 30 min", "result": "0.02 percentage of dose injected per organ"},
      {"measurement": "percentage of dose injected per organ, adrenals", "setting": "[3]; 1 h", "result": "0.01 percentage of dose injected per organ"},
      {"measurement": "percentage of dose injected per organ, adrenals", "setting": "[3]; 3 h", "result": "0.01 percentage of dose injected per organ"},
      {"measurement": "percentage of dose injected per organ, adrenals", "setting": "[3]; 24 h", "result": "0.00 percentage of dose injected per organ"},
      {"measurement": "percentage of dose injected per organ, bladder", "setting": "[3]; 30 min", "result": "0.47 percentage of dose injected per organ"},
      {"measurement": "percentage of dose injected per organ, bladder", "setting": "[3]; 1 h", "result": "0.32 percentage of dose injected per organ"},
      {"measurement": "percentage of dose injected per organ, bladder", "setting": "[3]; 3 h", "result": "0.05 percentage of dose injected per organ"},
      {"measurement": "percentage of dose injected per organ, bladder", "setting": "[3]; 24 h", "result": "0.01 percentage of dose injected per organ"},
      {"measurement": "percentage of dose injected per organ, blood", "setting": "[3]; 30 min", "result": "0.67 percentage of dose injected per organ"},
      {"measurement": "percentage of dose injected per organ, blood", "setting": "[3]; 1 h", "result": "0.34 percentage of dose injected per organ"},
      {"measurement": "percentage of dose injected per organ, blood", "setting": "[3]; 3 h", "result": "0.20 percentage of dose injected per organ"},
      {"measurement": "percentage of dose injected per organ, blood", "setting": "[3]; 24 h", "result": "0.11 percentage of dose injected per organ"},
      {"measurement": "percentage of dose injected per organ, brain", "setting": "[3]; 30 min", "result": "0.03 percentage of dose injected per organ"},
      {"measurement": "percentage of dose injected per organ, brain", "setting": "[3]; 1 h", "result": "0.01 percentage of dose injected per organ"},
      {"measurement": "percentage of dose injected per organ, brain", "setting": "[3]; 3 h", "result": "0.01 percentage of dose injected per organ"},
      {"measurement": "percentage of dose injected per organ, brain", "setting": "[3]; 24 h", "result": "0.01 percentage of dose injected per organ"},
      {"measurement": "percentage of dose injected per organ, caecum", "setting": "[3]; 30 min", "result": "0.31 percentage of dose injected per organ"},
      {"measurement": "percentage of dose injected per organ, caecum", "setting": "[3]; 1 h", "result": "0.18 percentage of dose injected per organ"},
      {"measurement": "percentage of dose injected per organ, caecum", "setting": "[3]; 3 h", "result": "0.11 percentage of dose injected per organ"},
      {"measurement": "percentage of dose injected per organ, caecum", "setting": "[3]; 24 h", "result": "0.66 percentage of dose injected per organ"},
      {"measurement": "percentage of dose injected per organ, colon", "setting": "[3]; 30 min", "result": "0.46 percentage of dose injected per organ"},
      {"measurement": "percentage of dose injected per organ, colon", "setting": "[3]; 1 h", "result": "0.23 percentage of dose injected per organ"},
      {"measurement": "percentage of dose injected per organ, colon", "setting": "[3]; 3 h", "result": "0.19 percentage of dose injected per organ"},
      {"measurement": "percentage of dose injected per organ, colon", "setting": "[3]; 24 h", "result": "0.87 percentage of dose injected per organ"},
      {"measurement": "percentage of dose injected per organ, heart", "setting": "[3]; 30 min", "result": "0.21 percentage of dose injected per organ"},
      {"measurement": "percentage of dose injected per organ, heart", "setting": "[3]; 1 h", "result": "0.10 percentage of dose injected per organ"},
      {"measurement": "percentage of dose injected per organ, heart", "setting": "[3]; 3 h", "result": "0.06 percentage of dose injected per organ"},
      {"measurement": "percentage of dose injected per organ, heart", "setting": "[3]; 24 h", "result": "0.03 percentage of dose injected per organ"},
      {"measurement": "percentage of dose injected per organ, intestine", "setting": "[3]; 30 min", "result": "20.55 percentage of dose injected per organ"},
      {"measurement": "percentage of dose injected per organ, intestine", "setting": "[3]; 1 h", "result": "32.92 percentage of dose injected per organ"},
      {"measurement": "percentage of dose injected per organ, intestine", "setting": "[3]; 3 h", "result": "51.4 percentage of dose injected per organ"},
      {"measurement": "percentage of dose injected per organ, intestine", "setting": "[3]; 24 h", "result": "0.49 percentage of dose injected per organ"},
      {"measurement": "percentage of dose injected per organ, kidneys", "setting": "[3]; 30 min", "result": "4.55 percentage of dose injected per organ"},
      {"measurement": "percentage of dose injected per organ, kidneys", "setting": "[3]; 1 h", "result": "4.18 percentage of dose injected per organ"},
      {"measurement": "percentage of dose injected per organ, kidneys", "setting": "[3]; 3 h", "result": "3.87 percentage of dose injected per organ"},
      {"measurement": "percentage of dose injected per organ, kidneys", "setting": "[3]; 24 h", "result": "2.65 percentage of dose injected per organ"},
      {"measurement": "percentage of dose injected per organ, liver", "setting": "[3]; 30 min", "result": "14.38 percentage of dose injected per organ"},
      {"measurement": "percentage of dose injected per organ, liver", "setting": "[3]; 1 h", "result": "9.08 percentage of dose injected per organ"},
      {"measurement": "percentage of dose injected per organ, liver", "setting": "[3]; 3 h", "result": "3.84 percentage of dose injected per organ"},
      {"measurement": "percentage of dose injected per organ, liver", "setting": "[3]; 24 h", "result": "1.33 percentage of dose injected per organ"},
      {"measurement": "percentage of dose injected per organ, lungs", "setting": "[3]; 30 min", "result": "0.43 percentage of dose injected per organ"},
      {"measurement": "percentage of dose injected per organ, lungs", "setting": "[3]; 1 h", "result": "0.28 percentage of dose injected per organ"},
      {"measurement": "percentage of dose injected per organ, lungs", "setting": "[3]; 3 h", "result": "0.15 percentage of dose injected per organ"},
      {"measurement": "percentage of dose injected per organ, lungs", "setting": "[3]; 24 h", "result": "0.08 percentage of dose injected per organ"},
      {"measurement": "percentage of dose injected per organ, spleen", "setting": "[3]; 30 min", "result": "0.13 percentage of dose injected per organ"},
      {"measurement": "percentage of dose injected per organ, spleen", "setting": "[3]; 1 h", "result": "0.09 percentage of dose injected per organ"},
      {"measurement": "percentage of dose injected per organ, spleen", "setting": "[3]; 3 h", "result": "0.05 percentage of dose injected per organ"},
      {"measurement": "percentage of dose injected per organ, spleen", "setting": "[3]; 24 h", "result": "0.04 percentage of dose injected per organ"},
      {"measurement": "percentage of dose injected per organ, stomach", "setting": "[3]; 30 min", "result": "8.24 percentage of dose injected per organ"},
      {"measurement": "percentage of dose injected per organ, stomach", "setting": "[3]; 1 h", "result": "3.36 percentage of dose injected per organ"},
      {"measurement": "percentage of dose injected per organ, stomach", "setting": "[3]; 3 h", "result": "2.64 percentage of dose injected per organ"},
      {"measurement": "percentage of dose injected per organ, stomach", "setting": "[3]; 24 h", "result": "0.08 percentage of dose injected per organ"},
      {"measurement": "percentage of dose injected per organ, urine", "setting": "[3]; 30 min", "result": "14.39 percentage of dose injected per organ"},
      {"measurement": "percentage of dose injected per organ, urine", "setting": "[3]; 1 h", "result": "14.70 percentage of dose injected per organ"},
      {"measurement": "percentage of dose injected per organ, urine", "setting": "[3]; 3 h", "result": "0.44 percentage of dose injected per organ"},
      {"measurement": "percentage of dose injected per organ, urine", "setting": "[3]; 24 h", "result": "0.05 percentage of dose injected per organ"}
    ]}
  ]
}
